Tested on: Rainbow trout (Onchorhynchus mykiss, Shasta strain)
Assay: Rainbow trout feeding trial, 84 days: whole or disrupted Phaffia yeast versus synthetic astaxanthin
Assay type: in vivo
Details: after 84 days of feeding, FIG. 10, Phaffia versus synthetic astaxanthin
Method: The Phaffia strain was grown in a 2,000 l fermentor in a manner substantially described as above. Cells were concentrated to 15-22% solids by centrifugation and dried. The feed was processed by Zeigler Bros. Inc., […], Pa. The novel Phaffia rhodozma or synthetic astaxanthin (5% Carophyll Pink, Hoffmann-LaRoche) were incorporated into their #1⁄8 Trout Grower pelleted food. Rainbow trout (Onchorhynchus mykiss, Shasta strain) were obtained from a local commercial trout grower. After acclimation to laboratory conditions and an experimental control diet, the trout were moved into separate experimental tanks (28 fish per tank). […] Collectively, the procedures and diets employed in the experiments were designed to result in near-optimal growth of trout at 10 C, the approximate temperature at which most commercially-produced trout are raised. […] The fish were stunned by a blow to the head; total length measured; weight after blotting dry determined; and then each fish was cut across the isthmus severing the ventral aorta. […] The carotenoids were then partitioned into hexanes:ethyl acetate (1:1 by volume) and the total carotenoid and astaxanthin content were determined as described above in the section entitled PIGMENT EXTRACTION AND ASTAXANTHIN ANALYSIS. […] The DMSO extracted carotenoids were then quantified as described above in the section entitled PIGMENT EXTRACTION AND ASTAXANTHIN ANALYSIS. […]

Q: Which flesh carotenoid content does the source give for `CC1=C(/C=C/C(C)=C/C=C/C(C)=C/C=C/C=C(C)/C=C/C=C(C)/C=C/C2=C(C)C(=O)C(O)CC2(C)C)C(C)(C)CC(O)C1=O` (stereo not drawn) [synthetic astaxanthin, 3,3′-dihydroxy-β,β-carotene-4,4′-dione] here?
A: The flesh carotenoid content was “the same”.

Source: US6413736B1, “Astaxanthin over-producing strains of phaffia rhodozyma, methods for their cultivation, and their use in animal feeds” (Archer-Daniels-Midland Company, priority 1993, dated 2002)
